Our source for the IC50 values is ChEMBL document CHEMBL3880385, “2-Iminoisoindolinone derivatives as thrombin receptor antagonists” (2011).

Structures can show the parent of a compound that is named as a salt.

The experiment in a line: Antiproliferative activity against thrombin-induced […] smooth muscle cells isolated from Sprague-Dawley rat aorta after 2 days by MTT assay. In kind it is functional. Particulars: VSMC, 48 h. A general note: Tetrazolium assays rely on reduction of a dye to a coloured formazan, in cell work by metabolically active cells.
Usually IC50 stands for the concentration that gives 50% inhibition. As for `CCOc1cc2c(c(F)c1OCC)C(=N)N(CC(=O)c1cc(N3CCC(O)CC3)c(OC)c(C(C)(C)C)c1)C2`, the 50% inhibitory concentration (IC50) is 23 nM. The value for `CCOc1cc2c(c(F)c1OCC)C(=N)N(CC(=O)c1cc(N3CCNCC3)c(OC)c(C(C)(C)C)c1)C2` was 52 nM; that for `CCOc1cc2c(c(F)c1OCC)C(=N)N(CC(=O)c1cc(N3CCN(CC#N)CC3)c(OC)c(C(C)(C)C)c1)C2` was 75 nM; that for `CCOc1cc2c(c(F)c1OCC)C(=N)N(CC(=O)c1cc(N3CCN(CC(=O)O)CC3)c(OC)c(C(C)(C)C)c1)C2` was 150 nM.

Consider `CCOc1cc2c(c(F)c1OCC)C(=N)N(CC(=O)c1cc(N3CCOCC3)c(OC)c(C(C)(C)C)c1)C2` [ATOPAXAR HYDROBROMIDE], for which the IC50 stood at 32 nM.
